ChEMBL document CHEMBL1909514, “Imidazo[2,1-b]thiazole guanylhydrazones as RSK2 inhibitors” (Eur J Med Chem, 2011)

Tests used:
HOP-92 = assay: Growth inhibition of human HOP92 cells after 48 hrs by SRB assay; format: functional; conditions: HOP-92, 48 h
HT-29 = assay: Growth inhibition of human HT-29 cells after 48 hrs by SRB assay; format: functional; conditions: HT-29, 48 h
SK-MEL-28 = assay: Growth inhibition of human SK-MEL-28 cells after 48 hrs by SRB assay; format: functional; conditions: SK-MEL-28, 48 h
UO-31 = assay: Growth inhibition of human UO31 cells after 48 hrs by SRB assay; format: functional; conditions: UO-31, 48 h
A549 = assay: Growth inhibition of human A549 cells after 48 hrs by SRB assay; format: functional; conditions: A549, 48 h
SK-MEL-5 = assay: Growth inhibition of human SK-MEL-5 cells after 48 hrs by SRB assay; format: functional; conditions: SK-MEL-5, 48 h
ACHN = assay: Growth inhibition of human ACHN cells after 48 hrs by SRB assay; format: functional
NCI/ADR-RES = assay: Growth inhibition of human NCI/ADR-RES cells after 48 hrs by SRB assay; format: functional
OVCAR-5 = assay: Growth inhibition of human OVCAR5 cells after 48 hrs by SRB assay; format: functional; conditions: OVCAR-5, 48 h
Aurora kinase A = Aurora kinase A (Homo sapiens, UniProt O14965)
Sequence of Aurora kinase A (O14965 whole entry): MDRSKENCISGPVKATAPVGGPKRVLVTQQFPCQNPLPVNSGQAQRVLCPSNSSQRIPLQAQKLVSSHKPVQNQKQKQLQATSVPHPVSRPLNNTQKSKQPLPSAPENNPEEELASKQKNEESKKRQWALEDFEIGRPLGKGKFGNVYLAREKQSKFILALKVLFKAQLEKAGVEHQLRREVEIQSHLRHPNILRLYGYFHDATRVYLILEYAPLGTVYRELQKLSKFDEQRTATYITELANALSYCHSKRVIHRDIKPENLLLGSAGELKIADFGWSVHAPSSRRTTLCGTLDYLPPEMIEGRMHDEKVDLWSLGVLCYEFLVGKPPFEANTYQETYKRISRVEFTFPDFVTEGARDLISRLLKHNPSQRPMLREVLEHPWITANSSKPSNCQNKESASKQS

A498 = assay: Growth inhibition of human A498 cells after 48 hrs by SRB assay; format: functional; conditions: A498, 48 h
UACC-62 = assay: Growth inhibition of human UACC62 cells after 48 hrs by SRB assay; format: functional; conditions: UACC-62, 48 h
EKVX = assay: Growth inhibition of human EKVX cells after 48 hrs by SRB assay; format: functional
MCF7 = assay: Growth inhibition of human MCF7 cells after 48 hrs by SRB assay; format: functional; conditions: MCF7, 48 h
MOLT-4 = assay: Growth inhibition of human MOLT4 cells after 48 hrs by SRB assay; format: functional; conditions: MOLT-4, 48 h
[1] = target: Ribosomal protein S6 kinase alpha-3 (Homo sapiens, UniProt P51812)
Sequence of Ribosomal protein S6 kinase alpha-3 (P51812 whole entry): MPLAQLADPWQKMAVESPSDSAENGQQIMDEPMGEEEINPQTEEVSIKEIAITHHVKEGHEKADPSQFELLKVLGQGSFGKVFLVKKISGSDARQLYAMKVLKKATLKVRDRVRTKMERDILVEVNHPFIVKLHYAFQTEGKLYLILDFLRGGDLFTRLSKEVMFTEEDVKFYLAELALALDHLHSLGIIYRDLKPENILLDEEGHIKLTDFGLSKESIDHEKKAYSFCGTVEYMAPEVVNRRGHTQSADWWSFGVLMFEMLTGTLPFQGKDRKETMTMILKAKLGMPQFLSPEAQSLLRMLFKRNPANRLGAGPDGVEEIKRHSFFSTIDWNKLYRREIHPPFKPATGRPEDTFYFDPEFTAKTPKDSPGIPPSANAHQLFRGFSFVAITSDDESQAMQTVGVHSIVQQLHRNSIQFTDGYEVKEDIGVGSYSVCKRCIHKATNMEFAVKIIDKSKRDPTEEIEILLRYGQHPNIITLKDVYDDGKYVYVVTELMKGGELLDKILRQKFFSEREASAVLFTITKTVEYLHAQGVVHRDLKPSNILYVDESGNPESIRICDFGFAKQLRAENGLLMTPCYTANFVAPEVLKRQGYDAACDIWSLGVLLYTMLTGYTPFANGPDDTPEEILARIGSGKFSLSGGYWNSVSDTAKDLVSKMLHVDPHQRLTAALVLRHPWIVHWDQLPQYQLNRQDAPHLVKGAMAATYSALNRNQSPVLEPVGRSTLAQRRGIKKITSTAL
Description: Inhibition of RSK2 assessed as inhibition of substrate phosphorylation using fluorescent peptide substrate by microplate reader assay

SF-295 = assay: Growth inhibition of human SF295 cells after 48 hrs by SRB assay; format: functional; conditions: SF-295, 48 h
LOX IMVI = assay: Growth inhibition of human LOXIMVI cells after 48 hrs by SRB assay; format: functional
HCT-116 = assay: Growth inhibition of human HCT116 cells after 48 hrs by SRB assay; format: functional; conditions: HCT-116, 48 h
[2] = Growth inhibition of human OVCAR1 cells after 48 hrs by SRB assay; format: functional; conditions: OVCAR1, 48 h
PC-3 = assay: Growth inhibition of human PC3 cells after 48 hrs by SRB assay; format: functional; conditions: PC-3, 48 h
MDA-MB-231 = assay: Growth inhibition of human MDA-MB-231 cells after 48 hrs by SRB assay; format: functional; conditions: MDA-MB-231, 48 h
DU-145 = assay: Growth inhibition of human DU145 cells after 48 hrs by SRB assay; format: functional; conditions: DU-145, 48 h
SW-620 = assay: Growth inhibition of human SW620 cells after 48 hrs by SRB assay; format: functional; conditions: SW-620, 48 h
[3] = target: ALK tyrosine kinase receptor (Homo sapiens, UniProt Q9UM73)
Sequence of ALK tyrosine kinase receptor (Q9UM73 whole entry): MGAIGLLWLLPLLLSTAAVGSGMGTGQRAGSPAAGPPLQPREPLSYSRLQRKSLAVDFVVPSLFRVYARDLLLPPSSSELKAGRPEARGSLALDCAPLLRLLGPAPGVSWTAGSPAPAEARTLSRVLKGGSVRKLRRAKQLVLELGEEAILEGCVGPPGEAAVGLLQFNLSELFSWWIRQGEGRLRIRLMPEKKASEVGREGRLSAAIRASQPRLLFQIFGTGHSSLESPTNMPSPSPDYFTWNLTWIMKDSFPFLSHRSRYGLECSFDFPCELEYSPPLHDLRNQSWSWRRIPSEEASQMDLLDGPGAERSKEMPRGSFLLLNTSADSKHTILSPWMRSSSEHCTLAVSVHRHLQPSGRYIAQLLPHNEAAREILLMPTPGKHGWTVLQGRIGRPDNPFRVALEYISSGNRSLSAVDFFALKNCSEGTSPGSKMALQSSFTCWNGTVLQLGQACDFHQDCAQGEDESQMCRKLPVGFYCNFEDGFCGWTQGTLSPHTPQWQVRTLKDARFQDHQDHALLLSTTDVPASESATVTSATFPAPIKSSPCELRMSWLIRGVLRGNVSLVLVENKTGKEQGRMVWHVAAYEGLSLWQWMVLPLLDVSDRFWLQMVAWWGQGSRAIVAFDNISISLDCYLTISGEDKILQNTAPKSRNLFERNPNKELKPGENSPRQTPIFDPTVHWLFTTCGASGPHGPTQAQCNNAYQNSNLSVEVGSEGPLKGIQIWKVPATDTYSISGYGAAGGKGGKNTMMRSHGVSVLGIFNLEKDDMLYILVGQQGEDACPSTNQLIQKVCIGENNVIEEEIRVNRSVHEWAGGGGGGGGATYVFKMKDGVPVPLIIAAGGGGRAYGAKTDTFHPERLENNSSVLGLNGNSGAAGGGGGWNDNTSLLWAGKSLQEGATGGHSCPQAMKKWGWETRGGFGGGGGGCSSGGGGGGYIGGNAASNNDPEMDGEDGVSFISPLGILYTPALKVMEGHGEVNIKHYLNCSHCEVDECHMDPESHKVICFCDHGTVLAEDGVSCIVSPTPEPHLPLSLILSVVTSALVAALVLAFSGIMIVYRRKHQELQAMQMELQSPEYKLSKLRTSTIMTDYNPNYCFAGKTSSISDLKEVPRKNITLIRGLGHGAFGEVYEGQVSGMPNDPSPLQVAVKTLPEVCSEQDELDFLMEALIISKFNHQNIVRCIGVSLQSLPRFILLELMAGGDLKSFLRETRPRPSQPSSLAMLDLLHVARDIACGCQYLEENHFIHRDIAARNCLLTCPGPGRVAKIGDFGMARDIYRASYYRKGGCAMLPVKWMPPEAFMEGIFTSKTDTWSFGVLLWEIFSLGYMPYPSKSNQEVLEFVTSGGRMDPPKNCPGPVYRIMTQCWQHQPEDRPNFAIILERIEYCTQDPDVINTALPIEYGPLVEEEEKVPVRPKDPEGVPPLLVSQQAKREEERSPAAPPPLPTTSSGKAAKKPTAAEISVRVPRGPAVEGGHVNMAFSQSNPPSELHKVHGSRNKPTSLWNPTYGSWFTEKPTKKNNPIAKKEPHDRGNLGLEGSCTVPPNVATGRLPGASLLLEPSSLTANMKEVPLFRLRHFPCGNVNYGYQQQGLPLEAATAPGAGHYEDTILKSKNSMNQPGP

CCRF-CEM = assay: Growth inhibition of human CCRF-CEM cells after 48 hrs by SRB assay; format: functional
BT-549 = assay: Growth inhibition of human BT549 cells after 48 hrs by SRB assay; format: functional; conditions: BT-549, 48 h
[4] = target: T1, Serine/threonine-protein kinase Chk1 (Homo sapiens, UniProt O14757)
T1 sequence (O14757 whole entry): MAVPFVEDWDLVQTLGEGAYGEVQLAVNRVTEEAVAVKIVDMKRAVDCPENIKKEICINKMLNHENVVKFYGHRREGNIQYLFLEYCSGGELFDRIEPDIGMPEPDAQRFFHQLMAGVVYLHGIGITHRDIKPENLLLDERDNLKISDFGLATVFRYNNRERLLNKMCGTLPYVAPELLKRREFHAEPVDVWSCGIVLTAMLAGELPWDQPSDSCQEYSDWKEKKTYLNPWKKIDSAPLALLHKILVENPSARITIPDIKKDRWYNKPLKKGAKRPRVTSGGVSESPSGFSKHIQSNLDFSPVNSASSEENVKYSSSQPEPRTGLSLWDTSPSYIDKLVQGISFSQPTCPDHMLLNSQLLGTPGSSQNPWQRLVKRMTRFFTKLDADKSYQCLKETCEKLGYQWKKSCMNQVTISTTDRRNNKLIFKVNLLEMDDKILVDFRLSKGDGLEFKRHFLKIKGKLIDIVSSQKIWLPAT
Description: Inhibition of CHK1 assessed as inhibition of substrate phosphorylation using fluorescent peptide substrate by microplate reader assay

SN12C = assay: Growth inhibition of human SN12C cells after 48 hrs by SRB assay; format: functional
[5] = Growth inhibition of human Hs 578T cells after 48 hrs by SRB assay; format: functional
SF-268 = assay: Growth inhibition of human SF268 cells after 48 hrs by SRB assay; format: functional; conditions: SF-268, 48 h
[6] = read-out: pLC50 (the source's name) (converted)

N=C(N)N/N=C\c1c(-c2ccc([N+](=O)[O-])cc2)nc2sc(Br)cn12
GI50 (HOP-92): 676 nM | CC50 (HOP-92; [6]): 5.13 µM | TGI (HOP-92; read-out: pTGI (converted)): 2630 nM | GI50 (HT-29): 178 nM | CC50 (HT-29; [6]): 646 nM | TGI (HT-29; read-out: pTGI (converted)): 339 nM | GI50 (SK-MEL-28): 191 nM | CC50 (SK-MEL-28; [6]): 676 nM | TGI (SK-MEL-28; read-out: pTGI (converted)): 363 nM | GI50 (UO-31): 174 nM | CC50 (UO-31; [6]): 676 nM | TGI (UO-31; read-out: pTGI (converted)): 355 nM | GI50 (A549): 182 nM | CC50 (A549; [6]): 6.61 µM | TGI (A549; read-out: pTGI (converted)): 347 nM | GI50 (SK-MEL-5): 490 nM | CC50 (SK-MEL-5; [6]): 5.37 µM | TGI (SK-MEL-5; read-out: pTGI (converted)): 1950 nM | GI50 (ACHN): 295 nM | CC50 (ACHN; [6]): 5.37 µM | TGI (ACHN; read-out: pTGI (converted)): 871 nM | GI50 (NCI/ADR-RES): 219 nM | CC50 (NCI/ADR-RES; [6]): 3.55 µM | TGI (NCI/ADR-RES; read-out: pTGI (converted)): 891 nM | GI50 (OVCAR-5): 186 nM | CC50 (OVCAR-5; [6]): 851 nM | TGI (OVCAR-5; read-out: pTGI (converted)): 398 nM | IC50 (Aurora kinase A): > 20 µM | GI50 (A498): 1580 nM | CC50 (A498; [6]): 6.03 µM | TGI (A498; read-out: pTGI (converted)): 3.09 µM | GI50 (UACC-62): 347 nM | CC50 (UACC-62; [6]): 4.57 µM | TGI (UACC-62; read-out: pTGI (converted)): 4.47 µM | GI50 (EKVX): 1070 nM | CC50 (EKVX; [6]): 7.41 µM | TGI (EKVX; read-out: pTGI (converted)): 4.47 µM | GI50 (MCF7): 162 nM | TGI (MCF7; read-out: pTGI (converted)): 324 nM | GI50 (MOLT-4): 195 nM | IC50 [1]: 1230 nM | GI50 (SF-295): 575 nM | CC50 (SF-295; [6]): 6.31 µM | TGI (SF-295; read-out: pTGI (converted)): 4.47 µM | GI50 (LOX IMVI): 191 nM | TGI (LOX IMVI; read-out: pTGI (converted)): 417 nM | GI50 (HCT-116): 166 nM | CC50 (HCT-116; [6]): 832 nM | TGI (HCT-116; read-out: pTGI (converted)): 302 nM | GI50 [2]: 186 nM | CC50 [2, 6]: 661 nM | TGI ([2]; read-out: pTGI (converted)): 347 nM | GI50 (PC-3): 186 nM | CC50 (PC-3; [6]): 759 nM | TGI (PC-3; read-out: pTGI (converted)): 380 nM | GI50 (MDA-MB-231): 275 nM | CC50 (MDA-MB-231; [6]): 3.89 µM | TGI (MDA-MB-231; read-out: pTGI (converted)): 851 nM | GI50 (DU-145): 200 nM | CC50 (DU-145; [6]): 813 nM | TGI (DU-145; read-out: pTGI (converted)): 398 nM | GI50 (SW-620): 182 nM | CC50 (SW-620; [6]): 891 nM | TGI (SW-620; read-out: pTGI (converted)): 407 nM | IC50 [3]: > 20 µM | GI50 (CCRF-CEM): 102 nM | CC50 (CCRF-CEM; [6]): > 100 µM | GI50 (BT-549): 186 nM | CC50 (BT-549; [6]): 7.24 µM | TGI (BT-549; read-out: pTGI (converted)): 3.63 µM | IC50 [4]: > 100 µM | GI50 (SN12C): 617 nM | CC50 (SN12C; [6]): 5.89 µM | TGI (SN12C; read-out: pTGI (converted)): 2820 nM | GI50 [5]: 288 nM | CC50 [5, 6]: 3.47 µM | TGI ([5]; read-out: pTGI (converted)): 933 nM | GI50 (SF-268): 219 nM | TGI (SF-268; read-out: pTGI (converted)): 447 nM
